Target: T1, human metabotropic glutamate 7 receptor (hmGlu7) (Homo sapiens, UniProt Q14831)
T1 construct: expressed in transfected cells
Experiment: mGlu7 assay on HEK-expressing human mGlu7: fluorescent cell based-Ca2+ mobilization assay (FLIPR), inhibition of EC80 L-AP4 response
Conditions: HEK-293 cells expressing hmGlu7, EC80 L-AP4; mean of at least three independent experiments in duplicate; read-out: Ca^2+ Flux (mean IC50)
Text: mGlu7 Assay on HEK-Expressing Human mGLU7
The cDNA encoding the human metabotropic glutamate 7 receptor (hmGlu7), (accession number NM_181874.2, NCBI Nucleotide database browser), was subcloned into an expression vector containing also the hygromycin resistance gene. In parallel, the cDNA encoding a G protein allowing redirection of the activation signal to intracellular calcium flux was subcloned into a different expression vector containing also the Puromycin resistance gene. Transfection of both these vectors into HEK293 cells with PolyFect reagent (Qiagen) according to supplier's protocol, and hygromycin and puromycin treatment allowed selection of antibiotic resistant cells which had integrated stably one or more copies of the plasmids. Positive cellular clones expressing hmGlu7 were identified in a functional assay measuring changes in calcium fluxes in response to glutamate and L-AP4 or known mGlu7 orthosteric antagonists.
HEK-293 cells expressing hmGlu7 were maintained in media containing DMEM, Fetal Bovine Serum (10%), GlutaMAX™ (2 mM), penicillin (100 units/mL), streptomycin (100 μg/mL), geneticin (100 μg/mL) and hygromycin-B (40 μg/mL) and puromycin (1 μg/mL) at 37° C. with 5% CO2 in a humidified atmosphere.
Human mGlu7 HEK-293 cells were plated out 24 hours prior to a fluorescent cell-based calcium mobilization assay using FLIPR^384 assay (Molecular Device, Sunnyvale, CA, USA) in black-walled, clear-bottomed, poly-L-ornithine-coated 384-well plates at a density of 25,000 cells/well in a glutamine/glutamate free DMEM medium containing fetal bovine serum (10%), penicillin (100 units/mL), streptomycin (100 μg/mL) and doxycyline (1 μg/ml) at 37° C. with 5% CO2 in a humidified atmosphere.
On the day of the assay, the medium was aspirated and the cells were loaded with a 3 μM solution of Fluo4-AM (LuBioScience, Lucerne, Switzerland) in 0.03% pluronic acid. After 1 hour at 37° C./5% CO2, the non incorporated dye was removed by washing cell plate with the assay buffer. All assays were performed in a pH 7.4 buffered-Solution containing 20 mM HEPES, 143 mM NaCl, 6 mM KCl, 1 mM MgSO4, 1 mM CaCl2, 0.125 mM sulfinpyrazone and 0.1% glucose.
After 10 s of basal fluorescence recording, various concentrations of the compounds of the invention were added to the cells. Changes in fluorescence levels were first monitored for 180 s in order to detect any agonist activity of the compounds. Then the cells were stimulated by an EC80 L-AP4 concentration for an additional 110 s in order to measure inhibiting activities of the compounds of the invention. EC80 L-AP4 concentration is the concentration giving 80% of the maximal glutamate response.
The concentration-response curves of L-AP4 or representative compounds of the present invention were generated using the Prism GraphPad software (Graph Pad Inc, San Diego, USA). The curves were fitted to a four-parameter logistic equation:
(Y=Bottom+(Top−Bottom)/(1+10^((Log IC50−X)*Hill Slope)
allowing determination of IC50 values.
The Table 3 below represents the mean IC50 obtained from at least three independent experiments of selected molecules performed in duplicate.

T1 sequence (Q14831 35-922 isoform Q14831-2 limits assumed): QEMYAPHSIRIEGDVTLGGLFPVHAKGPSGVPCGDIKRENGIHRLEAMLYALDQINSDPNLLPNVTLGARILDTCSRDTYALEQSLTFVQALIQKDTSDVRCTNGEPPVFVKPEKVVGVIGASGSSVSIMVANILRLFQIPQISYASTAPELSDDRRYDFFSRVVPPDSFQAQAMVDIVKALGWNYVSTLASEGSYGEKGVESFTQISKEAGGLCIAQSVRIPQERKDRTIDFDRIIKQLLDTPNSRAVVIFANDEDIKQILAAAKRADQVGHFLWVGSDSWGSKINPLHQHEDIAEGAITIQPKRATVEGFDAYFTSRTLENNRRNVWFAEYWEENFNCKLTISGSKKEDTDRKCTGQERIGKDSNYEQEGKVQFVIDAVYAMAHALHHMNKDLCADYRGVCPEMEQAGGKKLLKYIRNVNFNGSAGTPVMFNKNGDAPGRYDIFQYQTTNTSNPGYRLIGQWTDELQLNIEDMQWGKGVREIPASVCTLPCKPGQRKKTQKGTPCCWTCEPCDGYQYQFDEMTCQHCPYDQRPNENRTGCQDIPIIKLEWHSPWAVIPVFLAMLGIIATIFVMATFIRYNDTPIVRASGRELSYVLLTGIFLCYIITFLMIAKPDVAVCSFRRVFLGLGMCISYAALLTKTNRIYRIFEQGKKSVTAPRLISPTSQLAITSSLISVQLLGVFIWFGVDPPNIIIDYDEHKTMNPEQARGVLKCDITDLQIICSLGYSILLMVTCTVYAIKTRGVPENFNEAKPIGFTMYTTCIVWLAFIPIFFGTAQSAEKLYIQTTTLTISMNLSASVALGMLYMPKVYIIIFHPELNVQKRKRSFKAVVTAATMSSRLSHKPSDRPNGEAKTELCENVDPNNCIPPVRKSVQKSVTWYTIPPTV

| IC50 | SMILES |
| --- | --- |
| < 100 nM | Cc1ccc(-c2c(C)c3cnn(-c4ccccn4)c(=O)n3c2C)c(C)c1 [1-1] |
| < 100 nM | COc1cccc(-c2c(C)c3cnn(-c4ccccn4)c(=O)n3c2C)c1 [1-2] |
| < 100 nM | Cc1c(-c2cccc(N3CCC3)c2)c(C)n2c(=O)n(-c3ccccn3)ncc12 [1-3, 7-[3-(azetidin-1-yl)phenyl]-6,8-dimethyl-3-(2-pyridyl)pyrrolo[1,2-d][1,2,4]triazin-4-one] |
| 100 to 1000 nM | COc1cccc(-c2c(C)c3cnn(-c4ccccn4)c(=O)n3c2C)c1C [1-4] |
| 100 to 1000 nM | Cc1c(-c2cccc(N3CCC3)c2)c(C)n2c(=O)n(C3CCOCC3)ncc12 [1-5] |
| 100 to 1000 nM | Cc1c(-c2cccc(N3CCC3)c2)c(C)n2c(=O)n(-c3ccncc3)ncc12 [1-6] |
| < 100 nM | Cc1c(-c2cccc(N3CCC3)c2)c(C)n2c(=O)n(-c3ncccc3F)ncc12 [1-7] |
| 100 to 1000 nM | Cc1c(OC2CC2)cccc1-c1c(C)c2cnn(-c3ccccn3)c(=O)n2c1C [1-8] |
| 100 to 1000 nM | Cc1c(-c2cccc(N3CCC3)c2)c(C)n2c(=O)n(Cc3ccccn3)ncc12 [1-9] |
| 100 to 1000 nM | CCn1ncc2c(C)c(-c3cccc(N4CCC4)c3)c(C)n2c1=O [1-10, 7-[3-(azetidin-1-yl)phenyl]-3-ethyl-6,8-dimethyl-pyrrolo[1,2-d][1,2,4]triazin-4-one] |
| 1000 to 10000 nM | Cc1c(-c2cccc(N3CCC3)c2)c(C)n2c(=O)n(-c3ccc(CCO)cn3)ncc12 [1-11] |
| 100 to 1000 nM | Cc1c(-c2cccc(N3CCC3)c2)c(C)n2c(=O)n(C)ncc12 [1-12] |
| < 100 nM | Cc1c(-c2c(C)c3cnn(-c4ccccn4)c(=O)n3c2C)cccc1N1CCC1 [1-13] |
| 1000 to 10000 nM | Cc1c(C2=CCCCC2)c(C)n2c(=O)n(-c3ccccn3)ncc12 [1-14] |
| < 100 nM | Cc1c(-c2cccc(N3CCC3)c2)c(C)n2c(=O)n(-c3ncc(F)cn3)ncc12 [1-15] |
| 100 to 1000 nM | Cc1ccc(N2CCC2)cc1-c1c(C)c2cnn(-c3ccccn3)c(=O)n2c1C [1-16] |
| < 100 nM | Cc1c(-c2cccc(OC(F)F)c2)c(C)n2c(=O)n(-c3ncc(F)cn3)ncc12 [1-17] |
| 100 to 1000 nM | Cc1c(OC2CC2)cccc1-c1cc2cnn(-c3ncccn3)c(=O)n2c1 [1-18, 7-[3-(cyclopropoxy)-2-methyl-phenyl]-3-pyrimidin-2-yl-pyrrolo[1,2-d][1,2,4]triazin-4-one] |
| 1000 to 10000 nM | CCOC(=O)c1cnc(-n2ncc3c(C)c(-c4cccc(OC5CC5)c4)c(C)n3c2=O)nc1 [1-19] |
| < 100 nM | Cc1c(-c2cccc(OC3CC3)c2)c(C)n2c(=O)n(-c3ccccn3)ncc12 [1-20] |
| < 100 nM | Cc1c(-c2cccc(OC3CC3)c2)c(C)n2c(=O)n(-c3ncc(F)cn3)ncc12 [1-21] |

| IC50 | SMILES |
| --- | --- |
| < 100 nM | Cc1c(-c2cccc(N3CCC3)c2)c(C)n2c(=O)n(-c3ccc(F)cn3)ncc12 [1-22] |
| < 100 nM | Cc1c(-c2cccc(N3CCC3)c2)c(C)n2c(=O)n(-c3ncccn3)ncc12 [1-23] |
| < 100 nM | Cc1c(-c2cccc(N3CCC3)c2)c(C)n2c(=O)n(-c3ccc(C(C)(C)O)cn3)ncc12 [1-24, 7-[3-(azetidin-1-yl)phenyl]-3-[5-(1-hydroxy-1-methyl-ethyl)-2-pyridyl]-6,8-dimethyl-pyrrolo[1,2-d][1,2,4]triazin-4-one] |
| < 100 nM | COc1cnc(-n2ncc3c(C)c(-c4cccc(N5CCC5)c4)c(C)n3c2=O)nc1 [1-25] |
| 1000 to 10000 nM | Cc1c(-c2cccc(N3CCC3)c2)c(C)n2c(=O)n(-c3ccc(Br)cn3)ncc12 [1-26] |
| < 100 nM | Cc1c(OC2CC2)cccc1-c1c(C)c2cnn(-c3ncccn3)c(=O)n2c1C [1-27] |
| 1000 to 10000 nM | Cc1c(-c2cccc(N3CCC3)c2)c(C)n2c(=O)n(-c3ccc(N(C(=O)OC(C)(C)C)C(=O)OC(C)(C)C)cn3)ncc12 [1-28] |
| < 100 nM | Cc1c(-c2cccc(OC3CC3)c2)c(C)n2c(=O)n(-c3ncccn3)ncc12 [1-29] |
| < 100 nM | Cc1c(-c2cc(F)cc(N3CCC3)c2)c(C)n2c(=O)n(-c3ccccn3)ncc12 [1-30] |
| 100 to 1000 nM | Cc1c(-c2cccc(N3CCC3)c2)c(C)n2c(=O)n(-c3ccc(NC(=O)OC(C)(C)C)cn3)ncc12 [1-31] |
| 100 to 1000 nM | Cc1c(-c2cccc(N3CCC3)c2)c(C)n2c(=O)n(-c3ccc(N4CCOCC4)nc3)ncc12 [1-32] |
| 100 to 1000 nM | Cc1c(-c2cccc(N3CCC3)c2)c(C)n2c(=O)n(C3CC3)ncc12 [1-33] |
| 100 to 1000 nM | COCCNc1ccc(-n2ncc3c(C)c(-c4cccc(N5CCC5)c4)c(C)n3c2=O)nc1 [1-35] |
| 100 to 1000 nM | Cc1c(-c2cccc(N3CCC3)c2)c(C)n2c(=O)n(-c3ccc(NCCN(C)C)cn3)ncc12 [1-36] |
| < 100 nM | Cc1c(-c2cccc(OC(F)F)c2)c(C)n2c(=O)n(-c3ccccn3)ncc12 [1-37] |
| 100 to 1000 nM | Cc1c(-c2cccc(OC(F)(F)F)c2)c(C)n2c(=O)n(-c3ccccn3)ncc12 [1-38] |
| < 100 nM | Cc1c(-c2cccc(N3CCC3)c2)c(C)n2c(=O)n(-c3ncc(OC(F)F)cn3)ncc12 [1-42] |
| 100 to 1000 nM | Cc1c(-c2cccc(N3CCC3)c2)c(C)n2c(=O)n(-c3ncc(OCCN(C)C)cn3)ncc12 [1-43] |
| < 100 nM | Cc1c(-c2cccc(N3CCC3)c2)c(C)n2c(=O)n(-c3ncc(N)cn3)ncc12 [1-44] |
| 100 to 1000 nM | COc1cnc(-n2ncc3c(C)c(-c4ccc(C)cc4C)c(C)n3c2=O)nc1 [1-46] |
| 100 to 1000 nM | Cc1c(-c2cccc(OC3CC3)c2)c(C)n2c(=O)n(-c3ncc(N4CCOCC4)cn3)ncc12 [1-47, 7-[3-(cyclopropoxy)phenyl]-6,8-dimethyl-3-(5-morpholinopyrimidin-2-yl)pyrrolo[1,2-d][1,2,4]triazin-4-one] |

| IC50 | SMILES |
| --- | --- |
| 100 to 1000 nM | Cc1c(-c2cccc(OC3CC3)c2)c(C)n2c(=O)n(-c3ncc(Cl)cn3)ncc12 [1-48] |
| 100 to 1000 nM | Cc1c(OC2CC2)cccc1-c1c(C)c2cnn(-c3ncc(F)cn3)c(=O)n2c1C [1-49] |
| 100 to 1000 nM | Cc1cnc(-n2ncc3c(C)c(-c4cccc(OC5CC5)c4)c(C)n3c2=O)nc1 [1-50] |
| 100 to 1000 nM | Cc1c(-c2cccc(OC3CC3)c2)c(C)n2c(=O)n(-c3ncccc3F)ncc12 [1-51] |
| 100 to 1000 nM | Cc1cnc(-n2ncc3c(C)c(-c4cccc(OC5CC5)c4C)c(C)n3c2=O)nc1 [1-52] |
| 100 to 1000 nM | Cc1c(-c2cccc(OC(F)(F)F)c2)c(C)n2c(=O)n(-c3ncccn3)ncc12 [1-53, 6,8-dimethyl-3-pyrimidin-2-yl-7-[3-(trifluoromethoxy)phenyl]pyrrolo[1,2-d][1,2,4]triazin-4-one] |
| 100 to 1000 nM | Cc1c(OC2CC2)cccc1-c1c(C)c2cnn(-c3ccc(F)cn3)c(=O)n2c1C [1-54] |
| 100 to 1000 nM | COc1cnc(-n2ncc3c(C)c(-c4cccc(OC(F)(F)F)c4)c(C)n3c2=O)nc1 [1-56] |
| 100 to 1000 nM | COc1cnc(-n2ncc3c(C)c(-c4cccc(OC(F)F)c4)c(C)n3c2=O)nc1 [1-57] |
| < 100 nM | Cc1c(-c2cccc(OC(F)F)c2)c(C)n2c(=O)n(-c3ncccn3)ncc12 [1-58] |
| < 100 nM | Cc1c(OC2CC2)cccc1-c1c(C)c2cnn(-c3ccc(C(C)(C)O)cn3)c(=O)n2c1C [1-59] |
| 100 to 1000 nM | Cc1c(-c2cccc(OC(F)(F)F)c2)c(C)n2c(=O)n(-c3ncc(F)cn3)ncc12 [1-60] |
| 100 to 1000 nM | COc1cccc(-c2cc3cnn(-c4ncccn4)c(=O)n3c2C)c1 [1-61] |
| < 100 nM | Cc1c(-c2cccc3c2OCCN3C)cc2cnn(-c3ccccn3)c(=O)n12 [1-62] |
| < 100 nM | Cc1c(-c2cccc3c2OCCN3C)cc2cnn(-c3ncccn3)c(=O)n12 [1-63] |
| < 100 nM | Cc1c(-c2cccc3c2CCN3C)cc2cnn(-c3ccccn3)c(=O)n12 [1-64] |
| < 100 nM | Cc1c(-c2cccc3c2CCN3C2CC2)cc2cnn(-c3ccccn3)c(=O)n12 [1-65] |
| 100 to 1000 nM | Cc1c(-c2cccc3c2CCN3C(C)C)cc2cnn(-c3ccccn3)c(=O)n12 [1-66] |
| 100 to 1000 nM | Cc1c(-c2cccc3c2CCN3C2CC2)cc2cnn(-c3ncccn3)c(=O)n12 [1-67] |
| < 100 nM | Cc1c(-c2cccc3c2CCN3C(C)C)cc2cnn(-c3ncccn3)c(=O)n12 [1-68] |

From patent US20260184715A1, “NOVEL PYRROLO[1,2-d][1,2,4] TRIAZINONE DERIVATIVES AS NEGATIVE ALLOSTERIC MODULATORS OF MGLU7 RECEPTORS” (Neurosterix Pharma Sarl., priority 2022, published 2026)
